Source: US20070275887A1, “Method of Inhibiting Secretase Activity” (priority 2003, published 2007)
Non-standard residues stand in square brackets, D forms with d. Residues, ends and D or L forms follow the SMILES beside them. *: point of attachment. Nle = CCCC[C@H](N)C(=O)O; Cbz = O=C(OCc1ccccc1)*

Legend:
[1] = tested on: Embryonic fibroblasts (MEFs) from wild-type and synoviolin gene-deficient mice; assay: Effect of a γ-secretase inhibitor on cell proliferation activity (Alamer Blue) in wild-type and synoviolin-deficient MEFs; type: cell-based, mouse; settings: MEFs 1×10^3 cells/well, treated 24 hours, Alamer Blue absorbance after 2 hours; Syno −/− compared with Syno +/+ (FIG. 5)
Method: Since there are ethical objections to sensitivity measurement tests using the brains of Alzheimer's patients, another evaluation system needs to be used for evaluating the sensitivity of the secretase inhibitor. The inventors therefore used an evaluation system in which cells were treated with a secretase inhibitor and cell proliferation was used as the marker of secretase inhibition. There are no particular limits on the type of secretase here, and examples include β-secretase and γ-secretase. Consequently, the secretase inhibitor can be either a β-secretase inhibitor or a γ-secretase inhibitor. There are no particular limits on the secretase inhibitor, and examples include L-685,458 (Peptide Institute), (3,5-Difluorophenylacetyl)-Ala-Phg-OBu^t [DAPT] (Peptide Institute), Lys-Thr-Glu-Glu-Ile-Ser-Glu-Val-Asn-Sta-Val-Ala-Glu-Phe (Peptide Institute), Z-Leu-Leu-Nle-CHO (Wako) and the like.
Secretase activity is judged to have been inhibited when cell proliferation activity is suppressed. […]
Embryonic fibroblasts (MEFs) obtained from synoviolin gene-introduced mice (wild-type mice) and synoviolin gene-deficient mice were inoculated to 1×10^3 cells/well on 96-well plates, and cultured overnight. After culture the cells were treated with a γ-secretase inhibitor (Z-Leu-Leu-Nle-CHO, Wako) and cultured for 24 hours, after which Alamer Blue was added and absorbance was measured after 2 hours.

[2] = target: T1, FLAG-tagged synoviolin (human, UniProt Q86TM6 1-617); assay: co-immunoprecipitation (anti-HA or anti-FLAG) and Western blotting from HEK293T cells
T1 construct: not shown: FLAG tag
Method: An HA tag was attached to the N-terminal of this gene, which was inserted into a pcDNA3 vector. Next, Ha-tagged Herp, Herp(-bind) and a blank vector were each strongly expressed together with FLAG-tagged synoviolin in HEK293T cells. After 24 hours whole cell extract (WCE) was extracted, expression of each protein was confirmed, and immunoprecipitation was performed with anti-HA antibodies or anti-FLAG antibodies.

T1 sequence (Q86TM6 whole entry E545G): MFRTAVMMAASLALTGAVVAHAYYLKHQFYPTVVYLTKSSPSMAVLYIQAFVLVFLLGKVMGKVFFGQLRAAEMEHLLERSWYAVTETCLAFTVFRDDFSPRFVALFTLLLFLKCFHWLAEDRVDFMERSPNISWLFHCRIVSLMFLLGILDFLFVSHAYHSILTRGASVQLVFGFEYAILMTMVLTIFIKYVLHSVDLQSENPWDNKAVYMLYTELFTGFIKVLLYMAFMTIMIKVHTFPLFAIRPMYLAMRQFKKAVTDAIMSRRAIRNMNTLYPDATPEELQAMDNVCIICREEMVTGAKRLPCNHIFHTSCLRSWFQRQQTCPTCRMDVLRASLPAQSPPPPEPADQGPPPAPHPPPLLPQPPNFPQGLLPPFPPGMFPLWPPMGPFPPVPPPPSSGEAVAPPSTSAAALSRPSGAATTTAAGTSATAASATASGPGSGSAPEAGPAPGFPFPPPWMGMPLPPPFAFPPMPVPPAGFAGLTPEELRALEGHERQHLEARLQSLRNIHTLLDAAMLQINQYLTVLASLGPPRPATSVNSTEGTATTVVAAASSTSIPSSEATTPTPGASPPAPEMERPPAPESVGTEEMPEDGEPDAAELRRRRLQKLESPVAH

binding result [2]	Molecule	effect of the γ-secretase inhibitor on cell proliferation activity [1]
–	CCCC[C@@H](C=O)NC(=O)[C@H](CC(C)C)NC(=O)[C@H](CC(C)C)NC(=O)OCc1ccccc1 [Z-Leu-Leu-Nle-CHO] (Cbz-Leu-Leu-[Nle]-aldehyde)	greater in the cells derived from synoviolin-deficient mice than in the cells derived from wild-type mice
no binding	HA-tagged Herp(-bind) (other, not shown: HA tag at the N-terminal) MESETEPEPVTLLVKSPNQRHRDLELSGDRGWSVGHLKAHLSRVYPERPRPEDQRLIYSGKLLLDHQCLRDLLPKQEKRHVLHLVCNVKSPSKMPEINAKVAESTEEPAGSNRGQYPEDSSSDGLRQREVLRNLSSPGWENISRPEAAQQAFQGLGPGFSAQEIPVVSAPAPAPIHNQFPAENQPANQNAAPQVVVNPGANQNLRMNAQGGPIVEEDDEINRDWLDWTYSAATFSVFLSILYFYSSLSRFLMVMGATVVMYLHHVGWFPFRPRPVQNFPNDGPPPDVVNQDPNNNLQEGTDPETEDPNHLPPDRDVLDGEQTSPSFMSTAWLVFKTFFASLLPEGPPAIAN	–
